The structures appear in SMILES notation.

For one assay, the target named is KRAS G12V (Homo sapiens, UniProt P01116, G12V). The assay can be described thus: GDP-GTP exchange assay (bodipy-GDP/GppNHp, SOS1), KRAS G12V. To be noted: 2.5 nM bodipy-loaded KRAS G12V, 3 h incubation after adding GppNHp-SOS1; for certain compounds the most potent isomer is quoted; read-out: KRAS_G12V exchange assay IC50. Type of assay: biochemical. How it is done:
(§1) The inhibitor potency of the exemplified compounds was determined in a fluorescence based guanine nucleotide exchange assay, which measures the exchange of bodipy-GDP (fluorescently labeled GDP) for GppNHp (Non-hydrolyzable GTP analog) to generate the active state of KRAS in the presence of SOS1 (guanine nucleotide exchange factor). Inhibitors were serially diluted in DMSO and a volume of 0.1 μL was transferred to the wells of a black low volume 384-well plate. 5 µL/well volume of bodipy-loaded KRAS G12D diluted to 2.5 nM in assay buffer (25 mM Hepes pH 7.5, 50 mM NaCl, 10 mM MgCl2 and 0.01% Brij-35) was added to the plate and pre-incubated with inhibitor for 4 h at r.t. Appropriate controls (enzyme with no inhibitor or with a G12D inhibitor) were included on the plate. The exchange was initiated by the addition of a 5 μL/well volume containing 1 mM GppNHp and 300 nM SOS1 in assay buffer. The 10 μL/well reaction concentration of the bodipy-loaded KRAS G12D, GppNHp, and SOS1 were 2.5 nM, 500 μM, and 150 nM, respectively. The reaction plates were incubated at r.t. for 2 h, a time estimated for complete GDP-GTP exchange in the absence of inhibitor. For the KRAS G12V mutant, similar guanine nucleotide exchange assays were used with 2.5 nM as final concentration for the bodipy loaded KRAS proteins and 3 h incubation after adding GppNHp-SOS1 mixture. A cyclic peptide described to selectively bind G12D mutant (Sakamoto et al., BBRC 484.3 (2017), 605-611) or internal compounds with confirmed binding were used as positive controls in the assay plates. Fluorescence intensities were measured on a PheraStar plate reader instrument (BMG Labtech) with excitation at 485 nm and emission at 520 nm.
(§2) Either GraphPad prism or Genedata Screener SmartFit was used to analyze the data. The IC50 values were derived by fitting the data to a four parameter logistic equation producing a sigmoidal dose-response curve with a variable Hill coefficient.
(§3) The symbol “†” indicates IC50≤100 nM, “††” indicates IC50>100 nM but ≤1 μM; and “†††” indicates IC50 is >1 μM but ≤5 μM, “††††” indicates IC50 is >5 µM but ≤10 μM. “NA” indicates IC50 not available.

Another assay concerns the target KRAS G12D (Homo sapiens, UniProt P01116, G12D). The assay can be described thus: GDP-GTP exchange assay (bodipy-GDP/GppNHp, SOS1), KRAS G12D. Type of assay: biochemical. To be noted: 2.5 nM bodipy-loaded KRAS G12D, 4 h pre-incubation, 2 h reaction with GppNHp and SOS1; for certain compounds the most potent isomer is quoted; read-out: KRAS_G12D exchange assay IC50. How it is done:
as §1, §2, §3

KRAS G12D, sequence (P01116 1-188 isoform P01116-2 G12D): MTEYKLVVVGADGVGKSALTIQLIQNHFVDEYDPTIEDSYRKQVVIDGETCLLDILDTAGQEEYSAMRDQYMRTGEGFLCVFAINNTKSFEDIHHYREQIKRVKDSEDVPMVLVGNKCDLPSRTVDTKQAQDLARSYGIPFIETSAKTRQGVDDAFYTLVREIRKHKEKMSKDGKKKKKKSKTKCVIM
KRAS G12V, sequence (P01116 1-188 isoform P01116-2 G12V): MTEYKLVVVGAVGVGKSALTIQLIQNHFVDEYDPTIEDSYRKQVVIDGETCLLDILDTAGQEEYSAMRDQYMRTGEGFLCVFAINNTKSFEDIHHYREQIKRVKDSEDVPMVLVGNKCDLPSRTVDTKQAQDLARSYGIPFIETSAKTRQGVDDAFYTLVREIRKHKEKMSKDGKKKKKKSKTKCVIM

On to `Cc1nc2c(F)c(-c3cccc(Cl)c3Cl)c(CCC#N)cc2c2c1cc([C@H]1[C@H]3C[C@H](C[C@@H]3Oc3ccncc3)N1C(=O)C1CC1)n2[C@H]1[C@H]2CN[C@@H]1C2` (atropisomer, axis not shown) [Example 31, 3-((R)-1-((1R,4R,5S)-2-azabicyclo[2.1.1]hexan-5-yl)-2-((1R,3R,4R,5S)-2-(cyclopropanecarbonyl)-5-(pyridin-4-yloxy)-2-azabicyclo[2.2.1]heptan-3-yl)-7-(2,3-dichlorophenyl)-6-fluoro-4-methyl-1H-pyrrolo[3,2-c]quinolin-8-yl)propanenitrile], for which the concentration for half-maximal inhibition (IC50) on KRAS G12V and on KRAS G12D was at most 100 nM in each case.

In the case of `Cc1nc2c(F)c(-c3cccc(Cl)c3Cl)c(CCC#N)cc2c2c1cc([C@H]1[C@H]3C[C@H](C[C@@H]3F)N1C(=O)C1CC1)n2[C@H]1[C@H]2CN[C@@H]1C2` (atropisomer, axis not shown; (Ra)) [Example 2, 3-((Ra)-1-((1R,4R,5S)-2-Azabicyclo[2.1.1]hexan-5-yl)-2-((1R,3R,4R,5S)-2-(cyclopropanecarbonyl)-5-fluoro-2-azabicyclo[2.2.1]heptan-3-yl)-7-(2,3-dichlorophenyl)-6-fluoro-4-methyl-1H-pyrrolo[3,2-c]quinolin-8-yl)propanenitrile], the IC50 on KRAS G12V and at KRAS G12D was at most 100 nM throughout.

Turning to `Cc1nc2c(F)c(-c3cccc(Cl)c3Cl)c(CCC#N)cc2c2c1cc([C@H]1[C@H]3C[C@H](C[C@@H]3OC(F)F)N1C(=O)C1CC1)n2C1[C@H]2CN[C@@H]1C2` (stereo partly drawn) [Example 30, 3-((7R)-1-((1R,4R)-2-azabicyclo[2.1.1]hexan-5-yl)-2-((1R,3R,4R,5S)-2-(cyclopropanecarbonyl)-5-(difluoromethoxy)-2-azabicyclo[2.2.1]heptan-3-yl)-7-(2,3-dichlorophenyl)-6-fluoro-4-methyl-1H-pyrrolo[3,2-c]quinolin-8-yl)propanenitrile], the IC50 at KRAS G12V and at KRAS G12D was at most 100 nM throughout.

`CO[C@@H]1C[C@H]2C[C@@H]1[C@H](c1cc3c(C)nc4c(F)c(-c5cccc(Cl)c5Cl)c(CCC#N)cc4c3n1C1[C@H]3CN[C@@H]1C3)N2C(=O)C1CC1` (stereo partly drawn) [Example 22, 3-(1-((1R,4R)-2-azabicyclo[2.1.1]hexan-5-yl)-2-((1R,3R,4R,5R)-2-(cyclopropanecarbonyl)-5-methoxy-2-azabicyclo[2.2.1]heptan-3-yl)-7-(2,3-dichlorophenyl)-6-fluoro-4-methyl-1H-pyrrolo[3,2-c]quinolin-8-yl)propanenitrile]: the 50% inhibitory concentration (IC50) on KRAS G12V and at KRAS G12D was 100 to 1000 nM throughout.

As for `Cc1nc2c(F)c(-c3cccc(Cl)c3Cl)c(CCC#N)cc2c2c1cc([C@H]1[C@@H]3CC[C@@H](C3)N1C(=O)C1CC1)n2[C@H]1[C@H]2CN[C@@H]1C2` [Example 11, 3-(1-((1R,4R,5S)-2-azabicyclo[2.1.1]hexan-5-yl)-2-((1S,3R,4R)-2-(cyclopropanecarbonyl)-2-azabicyclo[2.2.1]heptan-3-yl)-7-(2,3-dichlorophenyl)-6-fluoro-4-methyl-1H-pyrrolo[3,2-c]quinolin-8-yl)propanenitrile], the IC50 on KRAS G12V and on KRAS G12D was at most 100 nM each time.

Turning to `Cc1nc2c(F)c(-c3cccc(Cl)c3Cl)c(CCC#N)cc2c2c1cc([C@H]1[C@H]3C[C@H](C[C@@H]3Oc3ccccn3)N1C(=O)C1CC1)n2C1[C@H]2CN[C@@H]1C2` (stereo partly drawn) [Example 28, 3-(1-((1R,4R)-2-azabicyclo[2.1.1]hexan-5-yl)-2-((1R,3R,4R,5S)-2-(cyclopropanecarbonyl)-5-(pyridin-2-yloxy)-2-azabicyclo[2.2.1]heptan-3-yl)-7-(2,3-dichlorophenyl)-6-fluoro-4-methyl-1H-pyrrolo[3,2-c]quinolin-8-yl)propanenitrile], the half-maximal inhibitory concentration (IC50) at KRAS G12V and on KRAS G12D was at most 100 nM throughout.

Usually IC50 stands for the concentration that inhibits the measured activity by half.
